Structures can show the parent of a compound that is named as a salt. Where two headings read alike, the source gives them in different places.
Biological target: T1, human AspH (His6-AspH315–758) (Homo sapiens, UniProt Q12797)
T1 construct: N-Terminally His6-tagged human AspH315–758 (His6-AspH315–758) was produced in Escherichia coli BL21 (DE3) cells; made in house; host or cells: Escherichia coli BL21 (DE3), pET-28a(+) vector
T1 sequence (Q12797 315-758): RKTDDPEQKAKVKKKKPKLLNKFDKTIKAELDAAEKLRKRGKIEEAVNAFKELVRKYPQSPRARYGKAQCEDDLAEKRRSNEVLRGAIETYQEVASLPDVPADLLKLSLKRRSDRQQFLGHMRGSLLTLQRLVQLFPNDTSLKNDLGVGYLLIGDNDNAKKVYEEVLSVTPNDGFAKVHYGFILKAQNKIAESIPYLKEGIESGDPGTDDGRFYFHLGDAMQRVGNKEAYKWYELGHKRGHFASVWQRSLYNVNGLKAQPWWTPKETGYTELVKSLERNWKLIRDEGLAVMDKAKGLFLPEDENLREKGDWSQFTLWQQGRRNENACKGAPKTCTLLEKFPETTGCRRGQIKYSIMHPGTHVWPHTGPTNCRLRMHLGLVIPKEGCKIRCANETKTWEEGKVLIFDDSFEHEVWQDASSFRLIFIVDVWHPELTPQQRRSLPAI
Assay: SPE-MS AspH inhibition assay (hFX-CP101-119 substrate hydroxylation)
Type: biochemical

[1] = AspH-inhibitor screening, 384-well Plate 1
[2] = AspH-inhibitor screening, 384-well Plate 1, substrate conversion
[3] = AspH-inhibitor screening, Plate 1-duplicate
[4] = AspH-inhibitor screening, Plate 1-duplicate, substrate conversion

| Plate 1 (% inhibition) [1] | Plate 1 (% conversion) [2] | Plate 1-duplicate (% inhibition) [3] | Plate 1-duplicate (% conversion) [4] | Plate 1 (% conversion) | Plate 1 (% inhibition) | Plate 1-duplicate (% conversion) | Plate 1-duplicate (% inhibition) | Compound |
| --- | --- | --- | --- | --- | --- | --- | --- | --- |
| 0.86% | 49.35% | 1.01% | 51.54% | – | – | – | – | Nc1cccc2c1C(=O)N(C1CCC(=O)NC1=O)C2=O (centres unmarked) [Pomalidomide] |
| 67.86% | 18.41% | 59.34% | 22.61% | – | – | – | – | CC/C(=C(\c1ccccc1)c1ccc(OCCN(C)C)cc1)c1ccccc1 [Tamoxifen citrate] |
| 5.13% | 47.38% | 5.57% | 49.28% | – | – | – | – | Cn1cnc2c(F)c(Nc3ccc(Br)cc3Cl)c(C(=O)NOCCO)cc21 [AZD6244 (Selumetinib)] |
| 8.67% | 45.75% | 6.32% | 48.91% | – | – | – | – | C[C@H]1C[C@@H]2[C@H]([C@@H](O)C[C@@]3(C)[C@H]2CC[C@]3(O)C(=O)CO)[C@@]2(C)C=CC(=O)C=C12 [Methylprednisolone] |
| -5.60% | 52.34% | 2.03% | 51.03% | – | – | – | – | CC(=O)O[C@@]12CO[C@@H]1C[C@H](O)[C@@]1(C)C(=O)[C@H](O)C3=C(C)[C@@H](OC(=O)[C@H](O)[C@@H](NC(=O)OC(C)(C)C)c4ccccc4)C[C@@](O)([C@@H](OC(=O)c4ccccc4)[C@H]21)C3(C)C [Docetaxel] |
| 3.96% | 47.92% | 7.32% | 48.41% | – | – | – | – | COc1ccc(Cl)c(Nc2nc3ccccc3nc2NS(=O)(=O)c2cccc(NC(=O)C(C)(C)N)c2)c1 [XL-147] |
| -68.38% | 81.33% | -15.02% | 59.49% | – | – | – | – | COc1cc2ncnc(Nc3ccc(F)c(Cl)c3)c2cc1NC(=O)/C=C/CN1CCCCC1.O [Dacomitinib (monohydrate) (PF-00299804)] |
| -5.93% | 52.49% | -4.09% | 54.07% | – | – | – | – | Nc1ccccc1NC(=O)c1ccc(CNC(=O)OCc2cccnc2)cc1 [Entinostat] |
| 21.60% | 39.78% | 12.13% | 46.02% | – | – | – | – | CC(C)(C)c1nc(-c2cccc(NS(=O)(=O)c3c(F)cccc3F)c2F)c(-c2ccnc(N)n2)s1.CS(=O)(=O)O [Dabrafenib Mesylate] |
| -27.18% | 62.30% | -43.09% | 73.41% | – | – | – | – | COCCn1c2c([n+](Cc3cnccn3)c1C)C(=O)c1ccccc1C2=O [YM155] |
| 40.68% | 30.96% | 22.43% | 40.92% | – | – | – | – | C[C@]12CC[C@@H]3c4ccc(O)cc4C[C@@H](CCCCCCCCC[S+]([O-])CCCC(F)(F)C(F)(F)F)[C@H]3[C@@H]1CC[C@@H]2O (some centres unmarked) [Fulvestrant] |
| 3.72% | 48.03% | -0.37% | 52.23% | – | – | – | – | C=CCc1cccc(/C=N/NC(=O)CN2CCN(Cc3ccccc3)CC2)c1O [PAC-1] |
| 9.96% | 45.15% | 5.23% | 49.45% | – | – | – | – | c1cc(CN2CCCNCCNCCCNCC2)ccc1CN1CCCNCCNCCCNCC1 [Plerixafor] |
| 6.85% | 46.59% | 3.67% | 50.22% | – | – | – | – | N#Cc1ccc(C(c2ccc(C#N)cc2)n2cncn2)cc1 [Letrozole] |
| 16.70% | 42.04% | 14.98% | 44.61% | – | – | – | – | C[C@@H](CN1CC(=O)NC(=O)C1)N1CC(=O)NC(=O)C1 [Dexrazoxane] |
| 97.27% | 4.83% | 96.98% | 3.94% | – | – | – | – | O=C(/C=C/c1cccc(S(=O)(=O)Nc2ccccc2)c1)NO [Belinostat (PXD101)] |
| 35.77% | 33.23% | 28.92% | 37.70% | – | – | – | – | CO[C@H]1C[C@@H]2CC[C@@H](C)[C@@](O)(O2)C(=O)C(=O)N2CCCC[C@H]2C(=O)O[C@H]([C@H](C)C[C@@H]2CC[C@@H](OC(=O)C(C)(CO)CO)[C@H](OC)C2)CC(=O)[C@H](C)/C=C(\C)[C@@H](O)[C@@H](OC)C(=O)[C@H](C)C[C@H](C)/C=C/C=C/C=C/1C [Temsirolimus] |
| -19.26% | 58.64% | -18.68% | 61.31% | – | – | – | – | CC(C)(C)c1cc(NC(=O)Nc2ccc(-c3cn4c(n3)sc3cc(OCCN5CCOCC5)ccc34)cc2)no1 [AC220_Quizartinib] |
| -1.18% | 50.29% | 1.69% | 51.20% | – | – | – | – | FC(F)c1nc2ccccc2n1-c1nc(N2CCOCC2)nc(N2CCOCC2)n1 [ZSTK474] |
| -7.04% | 53.00% | -8.24% | 56.13% | – | – | – | – | CC[C@H](CC#N)OC(=O)N[C@@H](C)c1cccc(NC(=O)Nc2ccc(-c3cnco3)c(OC)c2)c1 [AVN944] |
| -67.01% | 80.70% | -61.42% | 82.50% | – | – | – | – | Cn1cncc1[C@@](N)(c1ccc(Cl)cc1)c1ccc2c(c1)c(-c1cccc(Cl)c1)cc(=O)n2C [Tipifarnib (Zarnestra)] |
| 6.49% | 46.75% | 6.63% | 48.75% | – | – | – | – | Nc1nc2[nH]cc(CCc3ccc(C(=O)N[C@@H](CCC(=O)[O-])C(=O)[O-])cc3)c2c(=O)[nH]1.O.O.O.O.O.O.O.[Na+].[Na+] [Pemetrexed, Disodium salt, Heptahydrate] |
| 9.63% | 45.30% | 6.13% | 49.00% | – | – | – | – | C[C@@H]1CCN(C(=O)CC#N)C[C@@H]1N(C)c1ncnc2[nH]ccc12 [Tasocitinib_Tofacitinib] |
| 6.62% | 46.69% | 5.28% | 49.42% | – | – | – | – | CC(=O)[C@]1(O)Cc2c(O)c3c(c(O)c2[C@@H](O[C@H]2C[C@H](N)[C@H](O)[C@H](C)O2)C1)C(=O)c1ccccc1C3=O [Idarubicin HCl] |
| -22.64% | 60.21% | -30.80% | 67.31% | – | – | – | – | CC[C@]1(O)C[C@@H]2CN(CCc3c([nH]c4ccccc34)[C@@](C(=O)OC)(c3cc4c(cc3OC)N(C)[C@H]3[C@@](O)(C(=O)OC)[C@H](OC(C)=O)[C@]5(CC)C=CCN6CC[C@]43[C@@H]65)C2)C1 [Vinblastine sulfate] |
| – | – | – | – | 43.64% | 13.23% | 46.45% | 11.28% | CCN(CC)CCCC(C)Nc1ccnc2cc(Cl)ccc12 (centres unmarked) [Chloroquine diphosphate] |
| 10.19% | 45.05% | 7.21% | 48.47% | – | – | – | – | N#Cc1ccc(COC[C@H]2O[C@@H](n3c(NCc4ccc(Cl)c(Cl)c4)nc4c(N)ncnc43)[C@H](O)[C@@H]2O)cc1 [VER 155008] |
| 8.11% | 46.01% | 6.00% | 49.07% | – | – | – | – | CC(=O)Oc1ccccc1C(=O)O [Aspirin (Acetylsalicylic Acid)] |

| Compound | Plate 1 (% inhibition) [1] | Plate 1 (% conversion) [2] | Plate 1-duplicate (% inhibition) [3] | Plate 1-duplicate (% conversion) [4] | Plate 1 (% conversion) | Plate 1 (% inhibition) | Plate 1-duplicate (% conversion) | Plate 1-duplicate (% inhibition) |
| --- | --- | --- | --- | --- | --- | --- | --- | --- |
| C/C=C1\NC(=O)[C@H]2CSSCC/C=C/[C@H](CC(=O)N[C@H](C(C)C)C(=O)N2)OC(=O)[C@H](C(C)C)NC1=O [Romidepsin] | 31.77% | 35.08% | 29.51% | 37.41% | – | – | – | – |
| NCCCNCCSP(=O)(O)O [Amifostine] | 3.65% | 48.06% | 5.75% | 49.19% | – | – | – | – |
| Cc1ccc(C(=O)Nc2ccc(CN3CCN(C)CC3)c(C(F)(F)F)c2)cc1C#Cc1cnc2cccnn12 [AP24534 (Ponatinib)] | -64.76% | 79.66% | -35.27% | 69.54% | – | – | – | – |
| CCN(CCO)CCCOc1ccc2c(Nc3cc(CC(=O)Nc4cccc(F)c4)[nH]n3)ncnc2c1 [AZD1152-HQPA] | 1.19% | 49.20% | 0.26% | 51.91% | – | – | – | – |

From paper PMC7588595, “Small-molecule active pharmaceutical ingredients of approved cancer therapeutics inhibit human aspartate/asparagine-β-hydroxylase” (Bioorganic & Medicinal Chemistry, 2020)
